Values of other authors, collected in patent US8877755B2, “Dopamine-agonist combination therapy for improving sleep quality” (priority 2004, dated 2014).
Structures can show the parent of a compound that is named as a salt. Where two headings read alike, the source gives them in different places.

Legend:
[1] = mice; behavioral depression score <40
[2] = L-dopa 100 mg with carbidopa 10 mg, in most cases
[3] = primates, multiple doses for up to four days
[4] = in vivo
[5] = system: L-glutamate 1-carboxylase; details: at 10^−3 M
[6] = target: GABA:2-oxo-glutarate aminotransferase (Homo sapiens, UniProt P80404); details: at 10^−3 M
GABA:2-oxo-glutarate aminotransferase, sequence (P80404 29-500): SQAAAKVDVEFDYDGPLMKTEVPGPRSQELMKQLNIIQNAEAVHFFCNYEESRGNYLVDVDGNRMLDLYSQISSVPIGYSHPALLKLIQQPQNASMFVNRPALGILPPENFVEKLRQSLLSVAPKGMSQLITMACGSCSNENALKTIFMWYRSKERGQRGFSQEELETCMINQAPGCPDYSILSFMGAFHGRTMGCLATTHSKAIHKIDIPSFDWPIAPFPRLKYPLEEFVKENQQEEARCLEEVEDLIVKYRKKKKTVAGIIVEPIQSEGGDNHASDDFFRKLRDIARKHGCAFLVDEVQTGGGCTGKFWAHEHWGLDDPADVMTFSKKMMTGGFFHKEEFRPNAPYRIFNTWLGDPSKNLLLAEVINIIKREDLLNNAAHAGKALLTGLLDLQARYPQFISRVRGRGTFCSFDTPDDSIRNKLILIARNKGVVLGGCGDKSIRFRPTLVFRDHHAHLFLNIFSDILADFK

[7] = system: GABA uptake system; set-up: dose or concentration left out as unconfirmed
[8] = not given; remark: listed apart in the source
[9] = not given; remark: listed apart in the source
[10] = in vivo; remark: listed apart in the source
[11] = following oral administration
[12] = not given; remark: listed apart in the source
[13] = in vivo; remark: listed apart in the source

CCC1(c2ccccc2)CCC(=O)NC1=O (centres unmarked) [glutethimide]
ED100 [1]: 300 mg/kg

N[C@@H](Cc1ccc(O)c(O)c1)C(=O)O [L-dopa]
effect on RLS [2]: completely suppresses RLS

O=C(CCCN1CCC(O)(c2ccc(Cl)cc2)CC1)c1ccc(F)cc1 [haloperidol]
ED100 [1]: 10 mg/kg

CCCC(C)C1(CC)C(=O)NC(=O)NC1=O (centres unmarked) [pentobarbital]
ED100 [1]: 100 mg/kg

CN1CCc2cccc3c2[C@H]1Cc1ccc(O)c(O)c1-3 [apomorphine HCl]
tolerated dose (single bolus subcutaneous injection, mammals): up to 13 mg/kg | doses without major adverse effects [3]: 0.1 to 0.4 mg/kg

Oc1ccc(C2CNCCc3c2cc(O)c(O)c3Cl)cc1 (racemic) [racemic fenoldopam, 6-chloro-2,3,4,5-tetrahydro-1-(4-hydroxyphenyl)-1H-3-benzazepine-7,8-diol]
average clearance (CL) [4]: 2.6 L/min | half-life (t1/2) [4]: 4.6 min

CN1C(=O)CN=C(c2ccccc2)c2cc(Cl)ccc21 [diazepam]
ED100 [1]: 50 mg/kg

CN1CCc2cccc3c2[C@H]1Cc1ccc(O)c(O)c1-3 [apomorphine, (R)-5,6,6a,7-tetrahydro-6-methyl-4H-dibenzo-[de,g]quinoline-10,11-diol]
tolerated dose, continuous infusion (continuous infusion for 14 days): 420 µg/kg/h | minimally lethal dose, continuous infusion (over the course of the 14 day study): 1,500 μg/kg/hr

Oc1noc2c1CCNC2 [gaboxadol, 4,5,6,7-tetrahydroisoxazolo[5,4-c]pyridin-3-ol]
interaction with L-glutamate 1-carboxylase [5]: did not interact | interaction with GABA:2-oxo-glutarate aminotransferase [6]: did not interact | interaction with GABA uptake system [7]: did not interact

CCCC(C)(COC(N)=O)COC(N)=O [meprobamate]
ED100 [1]: 300 mg/kg

CN1C[C@@H](NS(=O)(=O)N(C)C)C[C@@H]2c3cccc4c3c(cn4C)C[C@H]21 [mesulergine, N′-(1,6-dimethylergolin-8α-yl)-N,N-dimethylsulfamide]
solubility in water ([8]; hydrochloride salt): soluble in water | half-life in vivo [9]: approximately 2 hr

COC(=O)[C@H]1[C@H]2C[C@@H]3c4[nH]c5cc(OC)ccc5c4CCN3C[C@H]2C[C@@H](OC(=O)c2cc(OC)c(OC)c(OC)c2)[C@@H]1OC [reserpine]
ED100 [1]: 50 mg/kg

Cc1ccc(-c2nc3ccc(C)cn3c2CC(=O)N(C)C)cc1 [zolpidem, N,N,6-trimethyl-2-(4-methylphenyl)-imidazo[1,2-s]pyridine-3-acetamide]
elimination half-life (mean) [10]: 2.4 h

CCN(C(C)=O)c1cccc(-c2ccnc3c(C#N)cnn23)c1 [Zaleplon, N-[3-(3-cyanopyrazolo[1,5-a]pyrimidin-7-yl)phenyl]-N-ethylacetamide]
time to peak plasma concentration [11]: 1 h

CC(=O)N(C)c1cccc(-c2ccnc3c(C(=O)c4cccs4)cnn23)c1 [Indiplon, N-methyl-N-(3-{3-[2-thienylcarbonyl]-pyrazolo-[1,5-a]-pyrimidin-7-yl}-phenyl)acetamide]
resulting pH of water solution ([8]; at 20-30 μg/ml in water): approximately 8.0 | half-life in vivo [12]: approximately 1.3 hours

C=CCN1C[C@H](C(=O)N(CCCN(C)C)C(=O)NCC)C[C@@H]2c3cccc4[nH]cc(c34)C[C@H]21 [Cabergoline, 1-[(6-allylergolin-8β-yl)-carbonyl]-1-[3-(dimethylamino)propyl]-3-ethylurea]
half life [13]: ≤ 65 h
